Columns and labels:
[1] = system: Balb/c mice; assay: Immunization with flu NP peptide, CTL responses by 51Cr release assay; type: in vivo; details: FIG. 2; for specific CTL responses: intradermal, 25 μg flu NP peptide equivalent, spleens after three weeks; for mice eliciting CTL responses: three mice per group
[2] = system: K562 cells; assay: Cell uptake by K562 cells, flow cytometry (Mean Fluorescence Intensity); type: cell-based; details: for cell uptake as judged by the mean of fluorescence intensity: 37° C.
Procedure: Cell association was measured by flow cytometry using a FACScan (Becton Dickinson, USA). Free or vectorised compounds were incubated with K562 cells (5×10^5 cells per ml) in Optimem medium at 37° C. for various periods of time.
Thereafter, the cells were washed twice and then resuspended in 0.5 ml of ice-cold PBS for FACS analysis. Cell-associated fluorophores were excited at 488 nm and fluorescence was measured at 525 nm. A histogram of fluorescence intensity per cell (1×10^4) was obtained and the calculated mean of this distribution (Mean Fluorescence Intensity) was considered as representative of the amount of cell-associated peptide
Flu NP epitope was conjugated to SynB3 and SynB4 vectors. First, we compared the cell uptake of free and conjugated flu NP. Flu NP epitope was conjugated to SynB3 and SynB4 vectors and labelled with a fluorescent group (NBD). The compounds were incubated with K562 cells for various times and the cell uptake was measured using flow cytometry.
We also coupled rDPV protein with SynB3 and SynB4 vectors. The coupling procedure is described in the Protocols. First, we compared the cell uptake of free and coupled rDPV. The rDPV was labelled with a fluorescent group (NBD) in order to measure its uptake. The compounds were incubated with K562 cells for various times and the cell uptake was measured using flow cytometry.

[3] = system: C57B1/6/c mice; assay: Immunization with rDPV protein, DPV specific CTL responses by 51Cr release assay; type: in vivo; details: 5 μg intradermal on day 0 and day 21, spleens day 42, FIG. 4, effective response defined as >10% specific lysis
[4] = NBD-labelled free or conjugated flu NP, FIG. 1
[5] = NBD-labelled free or coupled rDPV, FIG. 3

Row | Substance | specific CTL responses [1] | mice eliciting CTL responses [1] | cell uptake as judged by the mean of fluorescence intensity [2, 4] | cell uptake higher than the one observed for free flu NP ([2]; at 45 min) | mean CTL response [3] | time at which cell uptake reached saturation ([2]; FIG. 3) | cell uptake as judged by the mean of fluorescence intensity [2, 5] | cell uptake as judged by the mean of fluorescence intensity ([2]; NBD-labelled free or coupled rDPV, FIG. 3, listed as rDPV-SynB4)
1 | AWSFRVSYRGISYRRSR-TYQRTRALV (SEQ ID NO:21) (AWSFRVSYRGISYRRSRTYQRTRALV) [SynB4/flu NP] | elicited specific CTL responses | all mice | increased significantly | about 5 fold | – | – | – | –
2 | AWSFRVSYRGISYRRSR-rDPV ((SEQ ID NO:18)-rDPV) [SynB4/rDPV] | – | – | – | – | strong CTL responses | 100 min | increased significantly | slightly better than SynB3
3 | RRLSYSRRRF-TYQRTRALV (SEQ ID NO:22) (RRLSYSRRRFTYQRTRALV) [SynB3/flu NP] | elicited specific CTL responses | all mice | increased significantly | – | – | – | – | –
4 | RRLSYSRRRF-rDPV ((SEQ ID NO:11)-rDPV) [SynB3/rDPV] | – | – | – | – | strong CTL responses | 30 min | increased significantly | –
5 | TYQRTRALV (SEQ ID NO:20) [flu NP, reference compound] | failed to elicit specific CTL responses | – | very low uptake | – | – | – | – | –

Reference: patent US7314626B2, “Use of peptide vectors to improve the immune response to antigens” (SYNT:EM S.A., priority 2001, dated 2008)
